Values belong to the molecule of their own block, whether it stands above or below them.
Key:
PC12-HS cells [1] = experiment: Evaluation method A: neurocyte growth acceleration activity (Alamar blue); assay type: cell-based, rat; details: for Cell proliferation rate (%): negative control = 100%; for neurocyte growth acceleration activity (in words): 40, 200 and 1,000 nM, comment on Table 2
Source text: (§1) As a model of the nerve cell, the NGF (nerve growth factor) highly sensitive strain of PC12 cell derived from the rat adrenal pheochromocytoma (hereinafter referred to as “PC12-HS cell”; JCRB cell bank, National Research and Development Institute of Health and Nutrition), which has been widely used as a suitable model for research on human neurodegenerative disease, was used. As the test compound, […] of trimethine cyanine dye compounds; NK-5 (Chemical formula 2), NK-36 (Chemical formula 3), NK-44 (Chemical formula 5) and dye compounds represented by Chemical formulae 12 to 18, and NK-6 (Chemical formula 7), which is a monomethine cyanine dye, were selected. In addition, two kinds of ethylene cross-linked dyes (Chemical formulae 19 and 20), 15 kinds of monomethine cyanine dyes (Chemical formulae 21 to 35), and seven kinds of trimethine cyanine dyes (Chemical formulae 36 to 42), which were expected to have a good neurocyte growth acceleration activity and/or neurite-outgrowth promoting activity in the screening disclosed in Patent literature 6, were also re-evaluated for comparison. The Chemical formulae 12 to 42 are shown below.
(§2) The cyanine dye compounds subjected to the test (purity 97% by mass or more, synthesized by Hayashibara Co., Ltd., Okayama, Japan) were individually dissolved in DMSO (product number “D8418”, commercialized by SIGMA Corporation) at a concentration of 5 mg/ml, and the solutions were then filtered through DMSO-resistant membrane (“Millex-LGS LLG025SS”, commercialized by Millipore Corporation) and stored at 25° C. in a dark condition. At the time of use, they were further diluted with Dulbecco's Medium (hereinafter, abbreviated as “D-MEM medium”, commercialized by Nissui Pharmaceutical Co., Ltd.) supplemented by 10% by volume of fetal bovine serum (FBS), and subjected to the test.
PC12-HS cells were subjected to tests after frozen stock cultured cells were thawed and cultured with a D-MEM medium supplemented with 10% by volume of FBS (Hereinafter, when the term “culture” is simply used, it means that the cells are statically cultured in an incubator controlled at 37° C. under 5% by volume of CO2 conditions). Cells used in the test were collected using 0.25% by weight of trypsin solution, then diluted with a D-MEM medium supplemented with 10% by volume of FBS (hereinafter referred to as “culture medium”), seeded into collagen-coated 96-well plates (commercialized by Falcon, Tokyo, Japan, “Microtest Plate, Cell Culture, Flat Bottom”) to obtain 5×10^3 cells/100 μl/well, and cultured for 24 hours (hereinafter referred to as “pre-culture”). Then, the above test samples were diluted with a culture medium, and 100 μl of diluted solution of the test compounds were added to each well so that the final concentration of the test compounds in the wells became 50 ng/ml, and the cells were cultured for another three days. On day 3, the cultures supernatant was removed from each well, 200 μl of culture medium containing 10% by volume of Alamar blue reagents (commercialized by Trek Diagnostic Systems Inc., Ohio, USA) were added to each well, and the cells were cultured for 6 hours. After culturing for 6 hours, the cells were measured for fluorescent intensity at a wavelength of 544-590 nm by “FlexStation 3”, a product name of a fluorescent plate reader (commercialized by Japan Molecular Devices Corporation, Tokyo, Japan). […] Measurements were performed for each test compound in triplicate, and the mean values were shown.
The method was based on Experiment 1-1, except the concentrations of the test compounds were set to three doses of 40 nM, 200 nM and 1,000 nM for evaluation method A (neurocyte growth accelerating effect), and two doses of 200 nM and 1,000 nM for evaluation method B (neurite outgrowth promoting effect). […]

PC12-HS cells [2] = experiment: Evaluation method B: neurite-outgrowth promoting activity in the presence of NGF; assay type: cell-based, rat; details: for Neurite-outgrowth rate (%) / Action on PC12-HS neurite-outgrowth promotion (500 ng/ml): NGF 10 ng/ml; for Action on PC12-HS neurite-outgrowth promotion (500 ng/ml): 3 days, class of neurite-outgrowth rate; for neurite-outgrowth promoting activity (in words): 200 and 1,000 nM, comment on Table 2
Source text: as §1, §2
As in the case of evaluation of neurocyte growth accelerating activity (Evaluation method A), 50 μl/well of each test compound solution, prepared by diluting with the culture medium to give a final concentration of 500 ng/ml, and the culture medium containing 20 ng/ml of mouse NGF (mouse derived, final concentration 10 ng/ml, commercialized by Chemicon International, Inc., CA, USA) (50 μl/well) were added to the precultured PC12-HS cells in each well, and then cultured for three days. Culture medium was removed on day 3 of culture, and cells were fixed by adding 100 μl/well of 10% by volume of glutaraldehyde and standing for 20 minutes at room temperature. As a negative control, PC12-HS cells, cultured for three days with culture medium, were fixed with glutaraldehyde similarly as above. Fixed cells were observed under a microscope to assess the neurite-outgrowth. The neurite-outgrowth rate (%) was determined by observing the cells using a microscope by adjusting the magnitude to give about 100 cells in one visual field, counting the number of cells having neurites twice or more in length of the cell body (major axis), dividing by the total number of cells in the same visual field, and multiplying by 100. Measurements were carried out at three points for each test compound. […] In this experiment, the neurite-outgrowth rate was 5% or less when NGF was added (final concentration 10 ng/ml) without the addition of the test compound.
The method was based on Experiment 1-1, except the concentrations of the test compounds were set to three doses of 40 nM, 200 nM and 1,000 nM for evaluation method A (neurocyte growth accelerating effect), and two doses of 200 nM and 1,000 nM for evaluation method B (neurite outgrowth promoting effect). Measurements were performed in triplicate for each concentration of each test compound in both evaluation methods A and B. The result of the evaluation method A was expressed as a cell proliferation rate (%) by determined a relative percentage (%) when the value of the negative control to which the test compound was not added, was regarded as 100%. […]

[3] = DPPH radical scavenging ability (absorbance method); assay type: biochemical; details: ethanol, room temperature, 2 hours, absorbance at 490 nm
Source text: 2,2-Diphenyl-1-picrylhydrazyl (hereinafter referred to as “DPPH”) is a radical with an unpaired electron and has the oxidizing ability of other substances. In addition, because it is stable and easy to handle, it is widely used as an artificial radical-like substance for measuring the antioxidant ability of antioxidants. When DPPH reacts with a substance having antioxidant ability, it loses its own oxidizing ability and its color changes from deep purple to […].
DPPH (commercialized by Tokyo Kasei Kogyo Co., Ltd., Tokyo, Japan) was dissolved in ethanol to prepare a 167 μM DPPH ethanol solution, and 90 μl of the solution was added to each well of the 96-well microplate. A 60 μl each of the test compound serially diluted with ethanol was added to the DPPH ethanol solution, and the mixture was reacted at room temperature for 2 hours, and then the absorbance at 490 nm was measured. […] From those value, the 50% inhibitory concentration of the DPPH radical (Hereinafter, it is referred to as “IC50”) was calculated.

Structure (SMILES): CCN1C(=CC(C)=Cc2sc3ccccc3[n+]2CCCS(=O)(=O)[O-])Sc2ccccc21 [NK-4781]
Cell proliferation rate (%) (PC12-HS cells [1]; 1.000 nM): 89.1%
Cell proliferation rate (%) (PC12-HS cells [1]; 40 nM): 110.0%
Cell proliferation rate (%) (PC12-HS cells [1]; 200 nM): 106.6%
neurocyte growth acceleration activity (in words) (PC12-HS cells [1]): almost no growth acceleration activity
Neurite-outgrowth rate (%) (PC12-HS cells [2]; 1.000 nM): 88.3%
Neurite-outgrowth rate (%) (PC12-HS cells [2]; 200 nM): 31.2%
Action on PC12-HS neurite-outgrowth promotion (500 ng/ml) (PC12-HS cells [2]): ⊚ (45% or more was judged to be more potent than NK-4 (“double circle”))
neurite-outgrowth promoting activity (in words) (PC12-HS cells [2]): stronger neurite-outgrowth promoting activity than NK-4

Structure (SMILES): CC1=CO/C(=C\C=C\c2occ(C)[n+]2C)N1C.F[P-](F)(F)(F)(F)F [NK-10089]
Cell proliferation rate (%) (PC12-HS cells [1]; 1.000 nM): 91.6%
Cell proliferation rate (%) (PC12-HS cells [1]; 40 nM): 110.6%
Action on PC12-HS growth acceleration (50 ng/ml) (PC12-HS cells [1]; 50 ng/ml, 3 days culture, class of cell proliferation rate vs negative control = 100%): ◯ (the relative value of 130% to 169% was judged to be equivalent to NK-4 (“circle”))
Cell proliferation rate (%) (PC12-HS cells [1]; 200 nM): 123.4%
neurocyte growth acceleration activity (in words) (PC12-HS cells [1]): slightly weaker activity than NK-6 and NK-36
Neurite-outgrowth rate (%) (PC12-HS cells [2]; 1.000 nM): 29.3%
Neurite-outgrowth rate (%) (PC12-HS cells [2]; 200 nM): 0.0%

Structure (SMILES): COC1C=CC=CC1=CC=CC1=[N+](C)c2ccc3ccccc3c2C1(C)C.Cc1ccc(S(=O)(=O)[O-])cc1 (stereo not drawn) [NK-10214]
Cell proliferation rate (%) (PC12-HS cells [1]; 1.000 nM): 103.3%
Cell proliferation rate (%) (PC12-HS cells [1]; 40 nM): 109.3%
Cell proliferation rate (%) (PC12-HS cells [1]; 200 nM): 123.1%
neurocyte growth acceleration activity (in words) (PC12-HS cells [1]): slightly weaker activity than NK-6 and NK-36
Neurite-outgrowth rate (%) (PC12-HS cells [2]; 1.000 nM): 48.8%
Neurite-outgrowth rate (%) (PC12-HS cells [2]; 200 nM): 23.6%
Action on PC12-HS neurite-outgrowth promotion (500 ng/ml) (PC12-HS cells [2]): ⊚ (45% or more was judged to be more potent than NK-4 (“double circle”))
neurite-outgrowth promoting activity (in words) (PC12-HS cells [2]): stronger neurite-outgrowth promoting activity than NK-4

IC50 [3]: ≥ 10 mM
Structure (SMILES): CCn1ccc(=O)c2ccccc21 [NKX-4076]

— patent US20220031690A1, “ANTI-NEURODEGENERATIVE DISEASE AGENT” (Hayashibara Co., Ltd., priority 2018, published 2022)
